# Results published in the supplement of paper PMC9663587.
# Tests used:
# Test in all cases: GR value, 72 h; higher = faster growth (1 = untreated, <0 = killing);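 further: breast cancer and non-malignant breast epithelial lines, nine half-log doses, viable cells counted by Hoechst and LIVE/DEAD dye imaging versus time-zero plates and DMSO controls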
# Saracatinib/AZD0530 = compound: CN1CCN(CCOc2cc(OC3CCOCC3)c3c(Nc4c(Cl)ccc5c4OCO5)ncnc3c2)CC1 [Saracatinib/AZD0530]
# AZD2014 = compound: CNC(=O)c1cccc(-c2ccc3c(N4CCOC[C@@H]4C)nc(N4CCOC[C@@H]4C)nc3n2)c1 [AZD2014]
# [1] = compound: COc1ccc2c(c1)[C@]1(C[C@H]1c1ccc3c(/C=C/c4ccc(CN5C[C@@H](C)O[C@@H](C)C5)cc4)n[nH]c3c1)C(=O)N2
# Taselisib/GDC0032 = compound: Cc1nc(-c2cn3c(n2)-c2ccc(-c4cnn(C(C)(C)C(N)=O)c4)cc2OCC3)n(C(C)C)n1 [Taselisib/GDC0032]
# Buparlisib/NVP-BKM120 = compound: Nc1cc(C(F)(F)F)c(-c2cc(N3CCOCC3)nc(N3CCOCC3)n2)cn1 [Buparlisib/NVP-BKM120]
# Vorinostat = compound: O=C(CCCCCCC(=O)Nc1ccccc1)NO [Vorinostat]
cell line,measurement,setting,value
AU565,GR value,Saracatinib/AZD0530; 0.003162 µM,1.03 GR
same,GR value,Saracatinib/AZD0530; 0.01 µM,0.984 GR
same,GR value,Saracatinib/AZD0530; 0.03162 µM,1.03 GR
same,GR value,Saracatinib/AZD0530; 0.1 µM,0.952 GR
same,GR value,Saracatinib/AZD0530; 0.3162 µM,0.942 GR
same,GR value,Saracatinib/AZD0530; 1 µM,0.86 GR
same,GR value,Saracatinib/AZD0530; 3.162 µM,0.671 GR
same,GR value,Saracatinib/AZD0530; 10 µM,0.162 GR
same,GR value,AZD2014; 0.001 µM,0.592 GR
same,GR value,AZD2014; 0.003162 µM,0.509 GR
same,GR value,AZD2014; 0.01 µM,0.415 GR
same,GR value,AZD2014; 0.03162 µM,0.249 GR
same,GR value,AZD2014; 0.1 µM,0.219 GR
same,GR value,AZD2014; 0.3162 µM,0.149 GR
same,GR value,AZD2014; 1 µM,0.106 GR
same,GR value,AZD2014; 3.162 µM,-0.0159 GR
same,GR value,AZD2014; 10 µM,-0.0097 GR
same,GR value,[1]; 0.0001 µM,0.968 GR
same,GR value,[1]; 0.0003162 µM,0.96 GR
same,GR value,[1]; 0.001 µM,0.874 GR
same,GR value,[1]; 0.003162 µM,0.602 GR
same,GR value,[1]; 0.01 µM,-0.128 GR
same,GR value,[1]; 0.03162 µM,-0.147 GR
same,GR value,[1]; 0.1 µM,-0.161 GR
same,GR value,[1]; 0.3162 µM,-0.168 GR
same,GR value,[1]; 1 µM,-0.109 GR
same,GR value,Taselisib/GDC0032; 0.001 µM,0.728 GR
same,GR value,Taselisib/GDC0032; 0.003162 µM,0.58 GR
same,GR value,Taselisib/GDC0032; 0.01 µM,0.208 GR
same,GR value,Taselisib/GDC0032; 0.03162 µM,-0.0424 GR
same,GR value,Taselisib/GDC0032; 0.1 µM,-0.111 GR
same,GR value,Taselisib/GDC0032; 0.3162 µM,-0.171 GR
same,GR value,Taselisib/GDC0032; 1 µM,-0.209 GR
same,GR value,Taselisib/GDC0032; 3.162 µM,-0.225 GR
same,GR value,Taselisib/GDC0032; 10 µM,-0.538 GR
same,GR value,Buparlisib/NVP-BKM120; 0.001 µM,1.05 GR
same,GR value,Buparlisib/NVP-BKM120; 0.003162 µM,1.07 GR
same,GR value,Buparlisib/NVP-BKM120; 0.01 µM,0.976 GR
same,GR value,Buparlisib/NVP-BKM120; 0.03162 µM,0.845 GR
same,GR value,Buparlisib/NVP-BKM120; 0.1 µM,0.505 GR
same,GR value,Buparlisib/NVP-BKM120; 0.3162 µM,0.186 GR
same,GR value,Buparlisib/NVP-BKM120; 1 µM,-0.365 GR
same,GR value,Buparlisib/NVP-BKM120; 3.162 µM,-0.533 GR
same,GR value,Buparlisib/NVP-BKM120; 10 µM,-0.494 GR
same,GR value,Vorinostat; 0.001 µM,0.865 GR
same,GR value,Vorinostat; 0.003162 µM,0.936 GR
same,GR value,Vorinostat; 0.01 µM,1.02 GR
same,GR value,Vorinostat; 0.03162 µM,0.999 GR
same,GR value,Vorinostat; 0.1 µM,1.06 GR
same,GR value,Vorinostat; 0.3162 µM,0.941 GR
same,GR value,Vorinostat; 1 µM,0.551 GR
same,GR value,Vorinostat; 3.162 µM,-0.345 GR
same,GR value,Vorinostat; 10 µM,-0.448 GR
